Experimental data taken from BigSolDB 2.1.
“And” between values parts separate entries of the source, which are not always exact repeats. Equal entries are not always repeated.

## NC(CO)(CO)CO
In methanol, 293.2 K
  solubility (mole fraction): 0.0076
In methanol, 298.2 K
  solubility (mole fraction): 0.0092
In methanol, 303.2 K
  solubility (mole fraction): 0.0106
In methanol, 308.2 K
  solubility (mole fraction): 0.0124
In methanol, 313.2 K
  solubility (mole fraction): 0.0158

## C1CN2CN3CCN(CN1C3)C2
In water, 275 K
  solubility (mole fraction): 0.0905
In water, 277 K
  solubility (mole fraction): 0.0925
In water, 279 K
  solubility (mole fraction): 0.0946
In water, 283 K
  solubility (mole fraction): 0.0999
In water, 288 K
  solubility (mole fraction): 0.105
In water, 293 K
  solubility (mole fraction): 0.109
In water, 298 K
  solubility (mole fraction): 0.113
In water, 303 K
  solubility (mole fraction): 0.119

## Cc1ccc(-c2ncc(Cl)cc2-c2ccc(S(C)(=O)=O)cc2)cn1
In methanol, 298.2 K
  solubility (mole fraction): 0.0379
In propylene glycol, 298.2 K
  solubility (mole fraction): 0.0605
In water, 298.2 K
  solubility (mole fraction): 1.58e-05

## CCC(C)C
In water, 293.2 K
  solubility (mole fraction): 1.24e-05

## c1ccc(-c2cnc(-c3ccc(-c4ncc(-c5ccccc5)o4)cc3)o2)cc1
In acetone, 298.15 K
  solubility (mole fraction): 0.00013
In ethanol, 298.15 K
  solubility (mole fraction): 8.43e-06
In water, 298.15 K
  solubility (mole fraction): 7.3e-10

## Clc1ccc(OCCCBr)cc1
In ethanol, 273.15 K
  solubility (mole fraction): 0.0219
In ethanol, 278.15 K
  solubility (mole fraction): 0.0281
In ethanol, 283.15 K
  solubility (mole fraction): 0.0366
In ethanol, 288.15 K
  solubility (mole fraction): 0.0488
In ethanol, 293.15 K
  solubility (mole fraction): 0.0658
In ethanol, 298.15 K
  solubility (mole fraction): 0.0933
In ethanol, 303.15 K
  solubility (mole fraction): 0.142

## CC(=O)Nc1ccc(O)cc1
In water, 293.15 K
  solubility (mole fraction): 0.00155 and 0.00159 and 0.00152
In water, 310.15 K
  solubility (mole fraction): 0.00272
In water, 318.15 K
  solubility (mole fraction): 0.0036

## C(=N\Nc1ccccc1)/c1ccco1
In water, 298.15 K
  solubility (mole fraction): 5.73e-07

## F[P-](F)(F)(F)(F)F.F[P-](F)(F)(F)(F)F.c1cc[n+](CCCCCC[n+]2ccccc2)cc1
In acetone, 288.15 K
  solubility (mole fraction): 0.00399
In acetone, 293.15 K
  solubility (mole fraction): 0.00402
In acetone, 298.15 K
  solubility (mole fraction): 0.00409
In acetone, 303.15 K
  solubility (mole fraction): 0.00431
In water, 288.25 K
  solubility (mole fraction): 2.7e-05
In water, 294.85 K
  solubility (mole fraction): 4.2e-05
In water, 299.15 K
  solubility (mole fraction): 5.4e-05
In water, 303.55 K
  solubility (mole fraction): 7e-05
In water, 308.25 K
  solubility (mole fraction): 9e-05

## Cc1ncc(CO)c(CO)c1O.Cl
In water, 278.15 K
  solubility (mole fraction): 0.0102
In water, 283.15 K
  solubility (mole fraction): 0.012
In water, 288.15 K
  solubility (mole fraction): 0.014
In water, 293.15 K
  solubility (mole fraction): 0.0165
In water, 298.15 K
  solubility (mole fraction): 0.0187
In water, 303.15 K
  solubility (mole fraction): 0.0215
In water, 308.15 K
  solubility (mole fraction): 0.0245
In water, 313.15 K
  solubility (mole fraction): 0.0288

## O=[N+]([O-])c1ccc(N/N=C/c2cccs2)c([N+](=O)[O-])c1
In water, 298.15 K
  solubility (mole fraction): 7e-09

## CS(=O)(=O)c1ccc([C@@H](O)[C@@H](CF)NC(=O)C(Cl)Cl)cc1
In water, 293.15 K
  solubility (mole fraction): 5.05e-05
In water, 296.85 K
  solubility (mole fraction): 6.15e-05
In water, 300.75 K
  solubility (mole fraction): 8.19e-05
In water, 304.55 K
  solubility (mole fraction): 8.52e-05
In water, 308.25 K
  solubility (mole fraction): 9.71e-05
In water, 312.15 K
  solubility (mole fraction): 0.000122
In water, 316.25 K
  solubility (mole fraction): 0.000147

## Cc1c(O)c(=O)ccn1C
In NMP, 298.2 K
  solubility (mole fraction): 0.002
In PEG-400, 298.2 K
  solubility (mole fraction): 0.00864
In ethanol, 298.2 K
  solubility (mole fraction): 0.0014
In ethylene glycol, 298.2 K
  solubility (mole fraction): 0.00737
In propylene glycol, 298.2 K
  solubility (mole fraction): 0.00563

## NCCC(=O)N[C@@H](Cc1cnc[nH]1)C(=O)O
In water, 288.15 K
  solubility (mole fraction): 0.0217
In water, 293.15 K
  solubility (mole fraction): 0.0224
In water, 298.15 K
  solubility (mole fraction): 0.0236
In water, 303.15 K
  solubility (mole fraction): 0.0249
In water, 308.15 K
  solubility (mole fraction): 0.0265
In water, 313.15 K
  solubility (mole fraction): 0.0287
In water, 318.15 K
  solubility (mole fraction): 0.0301
In water, 323.15 K
  solubility (mole fraction): 0.0324

## C[C@@H]1CC[C@H]2[C@@H](C)C(=O)O[C@@H]3O[C@@]4(C)CC[C@@H]1[C@]32OO4
In ethanol, 278.2 K
  solubility (mole fraction): 0.000998
In ethanol, 286.2 K
  solubility (mole fraction): 0.00181
In ethanol, 303.2 K
  solubility (mole fraction): 0.00297
In ethanol, 313.2 K
  solubility (mole fraction): 0.00457
In ethanol, 323.2 K
  solubility (mole fraction): 0.00801
In ethanol, 343.2 K
  solubility (mole fraction): 0.0159

## C=CC1=C(C(=O)O)N2C(=O)[C@@H](NC(=O)/C(=N\OCC(=O)O)c3csc(N)n3)[C@H]2SC1
In water, 293.15 K
  solubility (mole fraction): 1.38e-05
In water, 298.15 K
  solubility (mole fraction): 1.65e-05
In water, 303.15 K
  solubility (mole fraction): 2.01e-05
In water, 308.15 K
  solubility (mole fraction): 2.49e-05
In water, 313.15 K
  solubility (mole fraction): 3.14e-05
In water, 323.15 K
  solubility (mole fraction): 4.74e-05
In water, 333.15 K
  solubility (mole fraction): 7.01e-05

## O=P(Oc1ccccc1)(Oc1ccccc1)N1CCN(P(=O)(Oc2ccccc2)Oc2ccccc2)CC1
In dichloromethane, 283.15 K
  solubility (mole fraction): 0.00567
In dichloromethane, 288.15 K
  solubility (mole fraction): 0.00642
In dichloromethane, 293.15 K
  solubility (mole fraction): 0.00731
In dichloromethane, 298.15 K
  solubility (mole fraction): 0.00843
In dichloromethane, 303.15 K
  solubility (mole fraction): 0.0103
In dichloromethane, 308.15 K
  solubility (mole fraction): 0.0133
